Experimental data as given in patent US5455278A (priority 1994, dated 1995).

Experiments:
[1] = system: mechanosensitive channels; details: giant spheroplasts of E. coli, patch clamp
[2] = system: Clostridium botulinum; format: cell-based; details: anaerobic conditions, 20° C.
[3] = Inactivation of falcarindiol by heating; format: physicochemical
[4] = system: L. monocytogenes; assay: Effect of oxygen on the inhibitory activity of falcarindiol; details: pH 7.5, 20° C.
[5] = system: Staphylococcus aureus; assay: Inhibitory effect of falcarindiol on S. aureus (optical density at 600nm, aerobic); format: cell-based; details: aerobic conditions, 20° C.
[6] = system: Salmonella typhimurium; assay: Inhibitory effect of falcarindiol on S. typhimurium (optical density at 600nm, aerobic); format: cell-based; details: aerobic conditions, 20° C.
[7] = Solubility of falcarindiol; format: physicochemical
[8] = system: Escherichia coli; assay: Inhibitory effect of falcarindiol on E. coli (optical density at 600nm, aerobic); format: cell-based; details: aerobic conditions, 20° C.
[9] = mice; cited from earlier work
[10] = Effectiveness of falcarindiol as inhibitor versus pH and aerobic conditions; format: cell-based

C=CC(O)C#CC#CC(O)C=CCCCCCCC (stereo not shown) [falcarindiol]
activation of mechanosensitive channels [1]: mechanosensitive channels were activated
inhibition of C. botulinum [2]: inhibited
stability to heating (activity) [3]: can be inactivated by heating
inactivation of L. monocytogenes under aerobic conditions ([4]; aerobic): completely inactivated
lag phase of L. monocytogenes under anaerobic conditions ([4]; anaerobic): 15 h
inhibition under aerobic versus anaerobic conditions [4]: much greater under aerobic conditions
inhibition of S. aureus [5]: inhibited
inhibition of S. typhimurium [6]: inactive
solubility in ethyl acetate [7]: readily soluble
inhibition of E. coli [8]: inactive
LD50 [9]: about 100 mg/kg of body weight
activity under aerobic conditions ([10]; aerobic conditions): active under aerobic conditions
pH (acidity) values at which it is effective ([10]; pH): above 5
